According to patent publication US10015967B2, “Form of isoxadifen-ethyl, a process for its preparation and use of the same” (ROTAM AGROCHEM INTERNATIONAL COMPANY LIMITED, priority 2015, dated 2018):

Tests used:
[1] = Stability test: aging of formulation samples in heated ovens per CIPAC MT 46.3, isoxadifen-ethyl content by HPLC; type: physicochemical; details: for RPH % (relative percentage of hydrolysis): stored at 54° C. for 1 week
Description: The stability of the isoxadifen-ethyl in these compositions was determined by aging samples in heated ovens having the same atmosphere therein, and then comparing the isoxadifen-ethyl content before and after aging to determine relative percentage of hydrolysis (RPH). RPH was calculated by the following equation: […]
Isoxadifen-ethyl content was determined by assaying the compositions with high-pressure liquid chromatography (HPLC) using reverse phase columns and eluants.
Samples prepared in Examples 4, 5 and 6 were stored at 54° C. for 1 week. The procedures are followed according to CIPAC MT 46.3. The concentration of isoxadifen-ethyl was measured at the end of each storage time by HPLC.

[2] = Stability of isoxadifen-ethyl (hydrolysis in water or during storage), general statement; type: physicochemical; details: dissolved or dispersed in water; storage with exposure to moisture
[3] = Example 4 oil based suspension concentrate (OD) with tribenuron-methyl, 10 weight % isoxadifen-ethyl
[4] = Example 5 soluble granules (SG) with metsulfuron-methyl, 7 weight % isoxadifen-ethyl
[5] = Example 6 water dispersible granules (WG) with metsulfuron-methyl, 7 weight % isoxadifen-ethyl

SMILES: CCOC(=O)C1=NOC(c2ccccc2)(c2ccccc2)C1 [Isoxadifen-ethyl, crystalline modification I] [Ethyl 4,5-dihydro-5,5-diphenyl-3-isoxazolecarboxylate]
- RPH % (relative percentage of hydrolysis) [1, 3]: 0%
- RPH % (relative percentage of hydrolysis) [1, 4]: 0%
- RPH % (relative percentage of hydrolysis) [1, 5]: 0%
- stability when mixing with sulfonylurea herbicides in formulations ([1]; relative to formulations containing the amorphous form): significant increase in its stability

SMILES: CCOC(=O)C1=NOC(c2ccccc2)(c2ccccc2)C1 [Amorphous isoxadifen-ethyl, Ethyl 4,5-dihydro-5,5-diphenyl-3-isoxazolecarboxylate]
- RPH % (relative percentage of hydrolysis) [1, 3]: 50%
- RPH % (relative percentage of hydrolysis) [1, 4]: 40%
- RPH % (relative percentage of hydrolysis) [1, 5]: 45%
- stability (hydrolysis) [2]: highly unstable
